According to patent US10611760B2, “Therapeutic compounds as inhibitors of the orexin-1 receptor” (C4X Discovery Limited, priority 2014, dated 2020):
Counter-ions that a name gives are not always drawn.

Columns and labels:
Format in all cases: cell-based
hOX1R [1] = molecular target: T1, hOX1R (Homo sapiens, UniProt O43613); assay: Intracellular calcium measurements using division-arrested cells, OX1; details: agonist orexin A at 2×EC50, * = single experiment, otherwise average of at least two, read-out: pIC50 OX1 (converted)
T1 sequence (O43613 1-425): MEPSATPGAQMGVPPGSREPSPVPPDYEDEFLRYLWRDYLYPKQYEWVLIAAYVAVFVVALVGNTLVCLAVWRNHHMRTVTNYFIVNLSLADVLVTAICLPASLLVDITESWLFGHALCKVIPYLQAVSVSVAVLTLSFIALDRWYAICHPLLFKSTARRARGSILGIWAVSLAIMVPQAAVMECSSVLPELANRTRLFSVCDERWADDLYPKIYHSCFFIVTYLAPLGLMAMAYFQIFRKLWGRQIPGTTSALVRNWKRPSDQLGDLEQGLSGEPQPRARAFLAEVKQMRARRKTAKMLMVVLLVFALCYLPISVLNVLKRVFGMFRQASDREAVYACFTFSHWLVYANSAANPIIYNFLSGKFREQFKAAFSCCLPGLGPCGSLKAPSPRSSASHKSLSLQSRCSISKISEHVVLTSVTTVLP
Experimental: (§1) Intracellular Calcium Measurements Using Division-arrested Cells (Table 1):
(§2) Test compounds are prepared as 10 mM stock solutions in DMSO, then serially diluted in half log concentrations with DMSO followed by dilution with assay buffer (HBSS (Sigma-Aldrich, H8264) containing 20 mM HEPES (Sigma-Aldrich, H4034), 0.1% (w/v) bovine serum albumin and adjusted to pH 7.4) to a top final assay concentration of 10 μM.
(§3) Human OX1 (CT-A474) and human OX2 (CT-A475) receptor-expressing division-arrested cells are plated into 384 well black, clear bottom, cell-bind plates at a seeding density of 10,000 cells/50 μL growth media. The seeded plates are incubated at 37° C. in air supplemented with 5% CO2 for 16 hrs.
(§4) The media is removed and replaced with 30 μL/well of cell loading buffer (a vial of Calcium 5 is solubilized in 22 mL of assay buffer to which a freshly prepared 250 mM solution of probenecid in 1:1 1M NaOH to assay buffer (200 μL) is added) and the cells incubated for 1 hr at 37° C. The serially diluted test compounds (10 μL/well) are added to the plate, which is then incubated for 10 mins and placed in a FlexStation III reader.

hOX2R [2] = molecular target: T2, hOX2R (Homo sapiens, UniProt O43614); assay: Intracellular calcium measurements using division-arrested cells, OX2; details: agonist orexin B at 2×EC50, * = single experiment, otherwise average of at least two, read-out: pIC50 OX2 (converted)
T2 sequence (O43614 1-444): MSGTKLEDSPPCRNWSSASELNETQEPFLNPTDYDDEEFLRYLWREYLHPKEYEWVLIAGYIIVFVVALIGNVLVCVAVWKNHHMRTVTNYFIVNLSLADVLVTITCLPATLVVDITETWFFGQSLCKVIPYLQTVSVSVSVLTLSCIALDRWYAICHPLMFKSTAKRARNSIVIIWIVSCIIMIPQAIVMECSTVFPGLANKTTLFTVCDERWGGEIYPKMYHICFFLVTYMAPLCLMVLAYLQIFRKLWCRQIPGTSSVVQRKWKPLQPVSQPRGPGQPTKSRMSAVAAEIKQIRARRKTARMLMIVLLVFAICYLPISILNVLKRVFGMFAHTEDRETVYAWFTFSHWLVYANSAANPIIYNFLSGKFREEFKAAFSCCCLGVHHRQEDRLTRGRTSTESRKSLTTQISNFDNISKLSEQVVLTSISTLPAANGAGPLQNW
Experimental: as §1, §2, §3, §4

hOX2R [3] = molecular target: T2, hOX2R; assay: Intracellular calcium measurements using stable-replicating cells, Method B (CHO cells, FLIPR Tetra), OX2; details: orexin A at EC75, read-out: pIC50 OX2 (converted)
Experimental: (§5) Intracellular Calcium Measurements Using Stable-replicating Cells:
(§6) Human OX1 or human OX2 receptor expressing CHO cells are plated into 384 well black, clear bottom, CellBIND plates at a seeding density of 10,000 cells/75 μL growth media. The seeded plates are incubated at 37° C. in air supplemented with 5% CO2 overnight.
(§7) The next day media is removed and replaced with 30 μL/well of cell loading buffer (a vial of Calcium 5 is solubilized in 20 mL of assay buffer) and the cells incubated for 1 hr at 37° C. The serially diluted test compounds (10 μL/well) are added to the cell plate by the FLIPR Tetra and the addition is monitored for 5 mins by the instrument. The cell plate is then removed and incubated for additional 25 mins in a humidified incubator at […] prior to being placed back into the FLIPR Tetra. Finally 10 μL of orexin A in assay buffer +0.1% (w/v) bovine serum albumin is dispensed by the FLIPR Tetra at an EC75 concentration determined for each assay run. Fluorescence is measured at excitation and emission wavelengths of 485 nm and 525 nm respectively and data analyzed using GraphPad Prism for the EC75 value of orexin A and Aplus to determine an IC50 value for each test compound.

hOX1R [4] = molecular target: T1, hOX1R; assay: Intracellular calcium measurements using stable-replicating cells, Method B (CHO cells, FLIPR Tetra), OX1; details: orexin A at EC75, read-out: pIC50 OX1 (converted)
Experimental: as §5, §6, §7

SMILES	IC50 (hOX1R [1])	IC50 (hOX2R [2])	IC50 (hOX2R [3])	IC50 (hOX1R [4])
CC[C@@H](CNc1cnc(C(F)(F)F)cn1)N(CC)C(=O)c1nc(C)ccc1-n1nccn1 [Example 70, (S)—N-ethyl-6-methyl-3-(2H-1,2,3-triazol-2-yl)-N-(1-((5-(trifluoromethyl)pyrazin-2-yl)amino)butan-2-yl)picolinamide]				0.00158 µM
CC[C@@H](CNc1ccc(C(F)(F)F)cn1)N(CC)C(=O)c1nc(C)ccc1-n1nccn1 [Example 71, (S)—N-ethyl-6-methyl-3-(2H-1,2,3-triazol-2-yl)-N-(1-((5-(trifluoromethyl)pyridin-2-yl)amino)butan-2-yl)picolinamide]			0.316 µM	0.001 µM
CC[C@@H](CNc1ncc2ccccc2n1)N(CC)C(=O)c1nc(C)ccc1-n1nccn1 [Example 72, (S)—N-ethyl-6-methyl-N-(1-(quinazolin-2-ylamino)butan-2-yl)-3-(2H-1,2,3-triazol-2-yl)picolinamide]				0.00158 µM
CC[C@@H](CNc1ncc(C(F)(F)F)cn1)N(CC)C(=O)c1nc(C)ccc1-n1nccn1 [Example 73, (S)—N-ethyl-6-methyl-3-(2H-1,2,3-triazol-2-yl)-N-(1-((5-(trifluoromethyl)pyrimidin-2-yl)amino)butan-2-yl)picolinamide]			> 1 µM	
Cc1ccc(-n2nccn2)c(C(=O)N(C)[C@H](CNc2ncc(C(F)(F)F)cn2)C2CC2)n1 [Example 74, (S)—N-(1-cyclopropyl-2-((5-(trifluoromethyl)pyrimidin-2-yl)amino)ethyl)-N,6-dimethyl-3-(2H-1,2,3-triazol-2-yl)picolinamide]			> 10 µM	2 µM
CC[C@@H](CN(C)c1ncc(C(F)(F)F)cn1)N(C)C(=O)c1nc(C)ccc1-n1nccn1 [Example 82, (S)—N,6-dimethyl-N-(1-(methyl(5-(trifluoromethyl)pyrimidin-2-yl)amino)butan-2-yl)-3-(2H-1,2,3-triazol-2-yl)picolinamide]			> 10 µM	0.00794 µM
CC[C@@H](CN(CCOC)c1ncc(C(F)(F)F)cn1)N(C)C(=O)c1nc(C)ccc1-n1nccn1 [Example 83, (S)—N-(1-((2-methoxyethyl)(5-(trifluoromethyl)pyrimidin-2-yl)amino)butan-2-yl)-N,6-dimethyl-3-(2H-1,2,3-triazol-2-yl)picolinamide]			> 1 µM	0.0126 µM
CC[C@@H](CNc1ncc(C(F)(F)F)cn1)N(C)C(=O)c1nc(C)ccc1-c1ncccn1 [Example 84, (S)—N,6-dimethyl-3-(pyrimidin-2-yl)-N-(1-((5-(trifluoromethyl)pyrimidin-2-yl)amino)butan-2-yl)picolinamide formic acid salt]				0.002 µM
CC[C@@H](CNc1ncc(C(F)(F)F)cn1)N(C)C(=O)c1nc(C)ccc1-n1cncn1 [Example 89, (S)—N,6-dimethyl-3-(1H-1,2,4-triazol-1-yl)-N-(1-((5-(trifluoromethyl)pyrimidin-2-yl)amino)butan-2-yl)picolinamide formic acid salt]			> 10 µM	2 µM
CC[C@@H](CNc1ncc(C(F)(F)F)cn1)N(C)C(=O)c1nc(OC)ccc1-n1nccn1 [Example 92, (S)-6-methoxy-N-methyl-3-(2H-1,2,3-triazol-2-yl)-N-(1-((5-(trifluoromethyl)pyrimidin-2-yl)amino)butan-2-yl)picolinamide]				0.0316 µM

Now from value to compound:

IC50 (hOX1R [1])	IC50 (hOX2R [2])	IC50 (hOX2R [3])	IC50 (hOX1R [4])	SMILES
0.02 µM	1.26 µM			CC[C@@H](CNc1ccc(C(F)(F)F)nc1)N(C)C(=O)c1cc(Cl)ccc1-n1nccn1 [Example 54, (S)-5-chloro-N-methyl-2-(2H-1,2,3-triazol-2-yl)-N-(1-((6-(trifluoromethyl)pyridin-3-yl)amino)butan-2-yl)benzamide]
0.126 µM	> 3.16 µM			CC(C)[C@@H](CNC(=O)c1ccc(F)cc1)N(C)C(=O)c1ccccc1-c1ccccc1 [Example 56, (S)—N-(1-(4-fluorobenzamido)-3-methylbutan-2-yl)-N-methyl-[1,1′-biphenyl]-2-carboxamide]
0.126 µM	> 5.01 µM			CC(C)[C@@H](CNC(=O)Nc1ccccc1)N(C)C(=O)c1ccccc1-c1ccccc1 [Example 58, (S)—N-methyl-N-(3-methyl-1-(3-phenylureido)butan-2-yl)-[1,1′-biphenyl]-2-carboxamide]
0.158 µM	> 6.31 µM			CC(C)[C@@H](CNc1ccc(Cl)cc1)N(C)C(=O)c1ccccc1-c1ccccc1 [Example 59, (S)—N-(1-((4-chlorophenyl)amino)-3-methylbutan-2-yl)-N-methyl-[1,1′-biphenyl]-2-carboxamide]
		0.794 µM	0.002 µM	CC[C@@H](CNc1cnc2ccccc2n1)N(C)C(=O)c1nc(C)ccc1-n1nccn1 [Example 65, (S)—N,6-dimethyl-N-(1-(quinoxalin-2-ylamino)butan-2-yl)-3-(2H-1,2,3-triazol-2-yl)picolinamide]
		> 0.631 µM	0.0126 µM	Cc1ccc(-n2nccn2)c(C(=O)N(C)[C@H](CNc2ncc(C(F)(F)F)cn2)C(C)C)n1 [Example 66, (S)—N,6-dimethyl-N-(3-methyl-1-((5-(trifluoromethyl)pyrimidin-2-yl)amino)butan-2-yl)-3-(2H-1,2,3-triazol-2-yl)picolinamide]
			0.00794 µM	Cc1ccc(-n2nccn2)c(C(=O)N(C)[C@H](CNc2cnc(C(F)(F)F)cn2)C(C)C)n1 [Example 67, (S)—N,6-dimethyl-N-(3-methyl-1-((5-(trifluoromethyl)pyrazin-2-yl)amino)butan-2-yl)-3-(2H-1,2,3-triazol-2-yl)picolinamide]
		> 1 µM	0.0158 µM	Cc1ccc(-n2nccn2)c(C(=O)N(C)[C@H](CNc2ncc3ccccc3n2)C(C)C)n1 [Example 68, (S)—N,6-dimethyl-N-(3-methyl-1-(quinazolin-2-ylamino)butan-2-yl)-3-(2H-1,2,3-triazol-2-yl)picolinamide]
		3.16 µM	0.00316 µM	Cc1ccc(-n2nccn2)c(C(=O)N(C)[C@H](CNc2ccc(C(F)(F)F)cn2)C(C)C)n1 [Example 69, (S)—N,6-dimethyl-N-(3-methyl-1-((5-(trifluoromethyl)pyridin-2-yl)amino)butan-2-yl)-3-(2H-1,2,3-triazol-2-yl)picolinamide]
		> 2 µM	0.0251 µM	CC[C@@H](CNc1ccc2ncccc2n1)N(C)C(=O)c1nc(C)ccc1-n1nccn1 [Example 76, (S)—N-(1-((1,5-naphthyridin-2-yl)amino)butan-2-yl)-N,6-dimethyl-3-(2H-1,2,3-triazol-2-yl)picolinamide]
			0.00398 µM	CC[C@@H](CNc1ccc(Cl)cn1)N(C)C(=O)c1cc(OC)c(C)cc1-n1nccn1 [Example 87, (S)—N-(1-((5-chloropyridin-2-yl)amino)butan-2-yl)-5-methoxy-N,4-dimethyl-2-(2H-1,2,3-triazol-2-yl)benzamide]
